Results published in US20260131003A1, “Method and kit for treating skin infections” (Koite Health Oy, priority 2020, published 2026).

Tested on: Staphylococcus aureus biofilm
Assay: Monospecies S. aureus biofilm model, light exposure after ICG incubation, CFU counting
Format: cell-based
Conditions: for reduction in bacterial counts: three-day maturated biofilm
Procedure: Monospecies S. Aureus biofilm model experiments were performed to study the effect of single, or recurring application of dual-light aPDT or its parts during the biofilm formation process. Flat-bottom Nunclon Delta well plates (Thermo Fisher Scientific Inc, US), were used, and the biofilm experiments were divided into different setups based on maturation age and the therapy given.
Applications of both single- and dual-light therapies were scheduled to mimic the daily use of antibacterial light therapy. The total amount of […] as kept unchanged in different treatment protocols, and the concentration of the ICG photosensitizer (if given) were identical. In the first setting, S. aureus biofilm was incubated for either one day or three days, and a single dose of light with ICG was applied at the end of the growth period. In the second setting, the biofilm was incubated for either three days or six days, and a daily dose of light ICG with was applied during incubation. In each setting, the last treatment was followed by plating onto brain heart infusion (BHI)-agar dishes for colony-forming unit (CFU) counting.
Staphylococcus Aureus bacteria were grown for 18 h in an incubator (NuAire DH autoflow 5500, NuAire inc, US), at +36 degrees C, 5% CO2 in BHI broth (Bio-Rad 3564014, Bio-Rad Laboratories, Inc, US). The resulting bacterial suspension was diluted with a 0.9% NaCl solution until an optical density (OD) of 0.46 was reached. The optical density was measured by a spectrophotometer (Varian Cary 100 Bio UV-VIS, Agilent Technologies, Inc, US), and then with a Den 1 McFarland Densitometer (Biosan, Riga, Latvia).
Biofilms were grown in flat-bottom 96-well plates (Thermo Fisher Scientific Inc, US) by placing 100 μl of 0.46 OD S. aureus suspension in each well, with 100 μl of BHI-broth growth medium. The well plates were then incubated in a growth chamber (36° C., 5% CO^2). The BHI-broth medium was changed daily to supply fresh growth medium and to wash away the debris. The change of the medium in each well was performed by removing 100 μl of the medium and replacing it with a similar amount of fresh BHI broth.
Before the light exposure took place, the growth medium was meticulously removed by pipetting and subsequently replaced with an equal amount of indocyanine green solution (Verdye, Diagnostic Green, GmBH), tittered to a concentration of 250 μg/ml. The indocyanine green was left to incubate at room temperature and in the dark for 10 minutes. After this incubation period, the biofilm was washed with a 0.9% NaCl solution. Then, the 0.9% solution of NaCl was added to each well to reach a total volume of 200 μl.
Light exposure was performed using specific, custom-made LED light sources (Lumichip Oy, Espoo, Finland). The exposure time was calculated from the determined light amount and known irradiances, which had been previously measured with a light energy meter (Thorlabs PM 100D with S121C sensor head, Thorlabs Inc, US) and a spectroradiometer (BTS256, Gigahertz-Optik GmbH, Germany), respectively. After the exposure, the BHI broth was changed and the plates were placed in the incubator, or, if the light exposure was final, the biofilm was scraped for CFU counting, as described below. Excitation lights were applied with two single-wave LED light sources with peak intensities at 810 nm or at 405 nm, and with a dual-wave LED light chip simultaneously producing two separate peak intensities at 405 nm and at 810 nm.
Antibacterial photodynamic therapy light exposure was administered at an 810-nm peak wavelength LED array on top of the well plate. The resulting light irradiance was 100 mW/cm^2, and the provided light energy was 100 J/cm^2. Antibacterial blue light was administered at a 405-nm peak wavelength LED array, with a resulting irradiance of 80 mW/cm^2, and resulting light energy of 100 J/cm^2. […]

Structure (SMILES): CC1(C)C(/C=C/C=C/C=C/C=C2\N(CCCCS(=O)(=O)O)c3ccc4ccccc4c3C2(C)C)=[N+](CCCCS(=O)(=O)[O-])c2ccc3ccccc3c21 [ICG, indocyanine green]
- antibacterial effectivity by dual-light relative energy ratio (1/4 NIR (810 nm) to 3/4 aBL (405 nm) compared with 1/1 and 3/4 NIR to 1/4 aBL, largest difference in 6-day daily treated biofilm): most effective
- antibacterial efficacy of simultaneous ICG/810-nm aPDT and 405-nm aBL versus single-light aPDT or aBL (S. aureus biofilm, overall conclusion): significantly improved antibacterial efficacy
- antibacterial efficiency of dual-light aPDT versus single light (CFU count) (one-day biofilm, single dose, ICG 250 μg/ml, 405 nm + 810 nm simultaneously, total 100 J/cm^2): significantly more efficient than single-light aBL or aPDT
- antibacterial effect (CFU count) (one-day biofilm, single light dose, ICG 250 μg/ml, all modalities (single-light aPDT 810 nm, dual-light aPDT)): bactericidal
- reduction in bacterial counts (single exposure of aPDT (ICG 250 μg/ml, 810 nm, 100 J/cm^2)): four
- reduction in bacterial counts (single exposure of dual-light aPDT (ICG 250 μg/ml, 405 nm + 810 nm)): four
